Where a SMILES comes first, the peptide text is derived from it. The star is where a group is joined. Cbz = O=C(OCc1ccccc1)*; CH2F = FC*
Key:
Type in all cases: cell-based, human
[1] = tested on: EBV transformed B cell lines from RA patients; test: Anti-Fas antibody CH-11-induced apoptosis of EBV transformed target cells, TUNEL assay; details: prior incubation of target cells (2.5 μM DMS), 8 hr CH-11 100 ng/ml, serum-free RPMI 1640, FIG. 5B
Procedure: In some of the examples below, the TUNEL assay was used. TdT-mediated dUTP-biotin nick end-labeling (TUNEL) assay was performed as described [see (Gorczyca, W, et al. Leukemia 7, 659-70 (1993)]. Briefly, cells were fixed in 1% buffered formaldehyde (pH 7.4) for 15 min on ice, washed in phosphate-buffered saline (PBS) and stored at 4° C. in 70% ethanol. Subsequently, cells were resuspended in 50 μl of a solution containing: 5 unites of terminal deoxynucleotidyl transferase (Boehringer Mannheim, Indianapolis, Ind.), 2.5 mM CoCl2,0.2 M potassium cacodylate, 25 mM Tris-HCl, 0.25 mg/ml bovine serum albumin, 0.5 nmoles biotin-16-dUTP (Boehringer Mannheim Biochemicals, Indianapolis, Ind.). […] Green (b-dUTP) and red (DNA) fluorescence of individual cells were measured with an EPICS Elite Flow Cytometer (Coulter, Hialeah. Fla., USA).
SPP, a potent derivative of sphingosine, has been recently shown to activate a pertussis toxin-sensitive G protein and to inhibit Fas-mediated cell death, Therefore, the ability of SPP to inhibit apoptosis in RA lymphocytes was investigated Apoptosis induced by 8 hr stimulation with the anti-Fas antibody CH-11 (100 ng/ml) was determined in EBV transformed target cells in the presence FIG. 5B, dashed bars) or absence (FIG. 5B, open bars) of 2.5 μM DMS in serum-free RPMI 1640 medium supplemented with insulin and transferrin. […]

[2] = tested on: EBV transformed B cell targets from RA patients; test: Cytolysis of EBV transformed target cells by Vγ9/Vδ2 T cells, 4 hr 51Cr release assay
Procedure: Fas-mediated cell death in-vivo is thought to be triggered, primarily, by cytotoxic T cells. […] However, susceptibility to cytolysis is markedly different between the two groups when determined using standard 4 hour ^51Cr release assays. FIG. 2C is a bar graph showing the susceptibility to cytolysis by Vγ9/Vδ2 T cell clones determined in EBV transformed lines from 23 normal controls, 18 patients with RA, 6 patients with pauciarticular-onset juvenile arthritis (“pJA”), and 3 patients with autoimmune thyroiditis. Lymphoblastoid target lines from all 23 normal controls tested were efficiently killed by Vγ9/Vδ2 clones, while none of the lines from 18 RA patients were susceptible. […]
Inhibition of Fas-mediated death signaling by SPP was also examined using γδ […]. Cytolysis of EBV transformed target cells by Vγ9/Vδ2 T cells was determined by 4 hr ^51Cr release assay (FIG. 5C) in the presence (●) or absence (∘) of 2.5 μM DMS. At the end of incubation, targets were washed and susceptibility to killing by γδ T cells was assessed.
Additionally, pre-incubating RA targets with pertussis toxin reversed their resistance to Fas-mediated and γδ T cell-mediated killing (FIGS. 5D and 5E). […] Cell death was determined using the commercial MTS kit (Promega, Madison, Wis.). […]

[3] = tested on: RA EBV transformed target cells; test: Anti-Fas antibody CH-11-induced apoptosis of RA EBV transformed target cells with MEK1 inhibitor; details: 16 hr CH-11 200 ng/ml, FIG. 6
Procedure: As noted above, it is not intended that the present invention be limited to any one inhibitor. In this example, resistance to Fas-mediated cell killing is shown to be reversed by preincubation of target cells with a MEK1 inhibitor. Apoptosis of RA EBV transformed target cells was induced by 16 hr stimulation with anti-Fas antibody CH-11 (200 ng/ml) in the presence (FIG. 6, black bars) or absence (FIG. 6, open bars) of 100 µM of the MEK1 inhibitor 2-(2′-amino3′-methoxyphenyl-oxanaphthalen-4-one) (PD098059).

[4] = tested on: caspases (CPP32, PARP cleavage); test: Western blot of CPP32 and PARP cleavage after anti-Fas antibody stimulation, with or without caspase inhibitor; details: preincubated 1 hr with 40 μM, then 100 ng/ml anti-Fas antibody
Procedure: In some examples below, Western blots were performed. For Western blot analysis, 5×10^6 cells were washed and suspended in 100 μl of lysis buffer [1% sodium dodecyl sulfate (SDS), 1 mM sodium vanadate, 10 mM Tris (pH 7.6)], and boiled for 5 min. After micro-centrifugation at 14,000 rpm, for 10 min, supernatants (cell lysates) were recovered. The protein concentration of the lysates was determined with bicinchoninic acid (BCA) protein assay reagent (Pierce). For CPP32 immunoblots, cell lysates (10-20 μg of protein per lane) were separated on 15% SDS-polyacrylamide gels under reducing conditions, transferred to polyvinylidene difluoride (PVDF) membranes (Millipore), and probed with mouse monoclonal anti-CPP32 (clone #19, IgG2a, from Signal Transduction Labs, Lexington, Ky.) followed by sheep F(ab′)2 fragment horseradish peroxidase-conjugated, anti-mouse Ig (Amersham). For PARP immunoblots, cell lysates (10 μg of protein per lane) were separated on 7.5% SDS-polyacrylamide gels, transferred to PVDF membrane, and probed with monoclonal mouse anti-human PARP antibody C2.10 (IgG1, Enzyme Systems Products Dublin, Calif.). Antibody binding was detected with an ECL detection system (Amersham).
Briefly, cells were preincubated for 1 hr in the presence or absence of 40 μM of Z-VAD-fmk, and subsequently incubated with 100 ng/ml of the anti-Fas antibody […]. At different time points thereafter, cells were collected, lysed and a Western blot analysis performed with the relevant antibodies.

[5] = tested on: EBV transformed B cell lines from RA patients; test: Anti-Fas antibody CH-11-mediated killing of EBV transformed B cell lines, MTS kit; details: preincubation 1 μg/ml for 1 hr, CH-11 100 ng/ml over a time course, FIG. 5D
Procedure: In this example, the susceptibility of lymphocytes to cell death is examined. As noted above, it is believed that prevention of immune-mediated self injury requires prompt elimination of activated lymphocytes at the end of an immune response. […] Briefly, PHA T cell lymphoblasts from 6 normal controls and 6 RA patients were established by stimulating peripheral blood mononuclear cells with 0.5 μg/ml PHA for 3 days, followed by expansion in 20 U/ml of recombinant human IL-2 (Collaborative Biomedical Products, Bedford, Mass.). Day-10 T cell lymphoblasts were incubated with 125 ng/ml of the agonist anti-Fas monoclonal antibody CH-11 (the antibody was immobilized and 1×10^5 cells per well were used). In all experiments, control mouse monoclonal IgM antibody (TEPC-183, from Sigma) was used in equivalent concentrations. Cell death was determined at different time points, using a commercial MTS kit (Promega, Madison. Wis.). Microplate wells were read by ELISA plate reader at 490 nm.
Additionally, pre-incubating RA targets with pertussis toxin reversed their resistance to Fas-mediated and γδ T cell-mediated killing (FIGS. 5D and 5E). […] Cell death was determined using the commercial MTS kit (Promega, Madison, Wis.). […] At the end of incubation, targets were washed and susceptibility to γδ T cell killing was determined using a 4 hr ^51Cr-release assay.

CCCCCCCCCCCCCCC[C@H](O)[C@@H](N)CO (racemic) [DHS, DL-threo-dihydrosphingosine]
resistance of RA targets to apoptosis by anti-Fas antibodies [1]: effectively reversed
resistance of RA targets to apoptosis by γδ T cells ([2]; prior incubation of target cells (2.5 μM DMS), 4 hr 51Cr release, FIG. 5C): effectively reversed

COc1cccc(-c2cc(=O)c3ccccc3o2)c1N [PD098059, 2-(2′-amino3′-methoxyphenyl-oxanaphthalen-4-one)]
resistance to Fas-mediated cell killing [3]: reversed

COC(=O)C[C@H](NC(=O)[C@H](C)NC(=O)[C@@H](NC(=O)OCc1ccccc1)C(C)C)C(=O)CF [Z-VAD-fmk, N-benzyloxycarbonyl-Val-Ala-Asp(O-methyl)-fluromethylketone] (Cbz-Val-Ala-Asp(OMe)-CH2F)
subsequent cell death after Fas ligation [4]: blocks
cleavage of PARP ([4]; Western blot, FIG. 4A lower panel): blocks
proteolytic processing of CPP32 ([4]; Western blot, FIG. 4A upper panel): blocks

pertussis toxin
resistance of RA targets to γδ T cell-mediated killing ([2]; preincubation 1 μg/ml for 1 hr, 4 hr 51Cr-release, FIG. 5E): reversed
resistance of RA targets to Fas-mediated killing [5]: reversed

From US6518259B1, “Compositions for treating autoimmune disease” (The Regents of the University of Michigan, priority 1998, dated 2003)
